# Measurements: US20190248779A1, “COMPOUNDS, COMPOSITIONS, AND METHODS FOR INCREASING CFTR ACTIVITY” (Proteostasis Therapeutics, Inc., priority 2016, published 2019)
# Target: T1, ΔF508-CFTR (Homo sapiens, UniProt P13569, DEL508-508)
# T1 construct: Primary lung epithelial cells homozygous for the Cystic Fibrosis-causing ΔF508 mutation were differentiated for a minimum of 4 weeks; endogenous in cells; host or cells: primary lung (bronchial) epithelial cells (hBE) homozygous for ΔF508, differentiated at an air-liquid interface
# T1 sequence (P13569 with tags, fused parts or gaps DEL508-508): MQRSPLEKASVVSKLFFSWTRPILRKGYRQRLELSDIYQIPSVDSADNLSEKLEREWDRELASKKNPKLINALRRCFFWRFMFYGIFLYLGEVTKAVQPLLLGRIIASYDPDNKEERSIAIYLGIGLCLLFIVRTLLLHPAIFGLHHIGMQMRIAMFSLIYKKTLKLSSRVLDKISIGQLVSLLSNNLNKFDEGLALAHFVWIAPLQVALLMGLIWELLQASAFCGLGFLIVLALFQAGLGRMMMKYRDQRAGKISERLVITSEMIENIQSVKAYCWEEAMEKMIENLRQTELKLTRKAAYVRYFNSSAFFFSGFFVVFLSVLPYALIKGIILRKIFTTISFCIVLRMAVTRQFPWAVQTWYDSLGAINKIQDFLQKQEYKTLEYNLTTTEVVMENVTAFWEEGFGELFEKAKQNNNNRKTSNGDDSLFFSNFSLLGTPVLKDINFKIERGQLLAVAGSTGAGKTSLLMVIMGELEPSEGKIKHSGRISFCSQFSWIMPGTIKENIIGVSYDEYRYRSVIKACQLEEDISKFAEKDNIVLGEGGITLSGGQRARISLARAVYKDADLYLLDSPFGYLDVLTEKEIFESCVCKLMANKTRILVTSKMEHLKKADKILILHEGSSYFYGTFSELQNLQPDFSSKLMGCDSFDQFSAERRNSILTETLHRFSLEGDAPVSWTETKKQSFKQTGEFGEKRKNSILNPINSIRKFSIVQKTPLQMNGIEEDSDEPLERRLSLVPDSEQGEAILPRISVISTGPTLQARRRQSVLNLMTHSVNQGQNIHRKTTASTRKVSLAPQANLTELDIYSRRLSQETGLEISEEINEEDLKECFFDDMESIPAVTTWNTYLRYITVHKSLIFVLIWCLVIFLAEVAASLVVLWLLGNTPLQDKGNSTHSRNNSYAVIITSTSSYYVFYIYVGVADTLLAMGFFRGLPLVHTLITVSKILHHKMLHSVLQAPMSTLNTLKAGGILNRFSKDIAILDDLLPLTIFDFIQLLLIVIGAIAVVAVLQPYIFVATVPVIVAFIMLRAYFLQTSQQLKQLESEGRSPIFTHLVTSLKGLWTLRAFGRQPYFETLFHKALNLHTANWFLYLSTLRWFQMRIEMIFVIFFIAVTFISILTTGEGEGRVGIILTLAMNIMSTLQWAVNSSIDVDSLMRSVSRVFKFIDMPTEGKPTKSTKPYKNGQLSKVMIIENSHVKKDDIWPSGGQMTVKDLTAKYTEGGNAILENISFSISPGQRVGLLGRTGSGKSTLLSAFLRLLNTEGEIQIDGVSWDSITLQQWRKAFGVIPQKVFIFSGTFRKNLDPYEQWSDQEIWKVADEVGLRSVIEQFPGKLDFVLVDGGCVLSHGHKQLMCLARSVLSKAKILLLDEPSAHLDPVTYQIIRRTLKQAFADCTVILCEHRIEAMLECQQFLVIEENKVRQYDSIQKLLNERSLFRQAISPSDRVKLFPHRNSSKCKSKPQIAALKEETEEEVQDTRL
# Assay: hBE equivalent current (Ieq) assay
# Assay type: cell-based
# Conditions: 24 h, relative to a CFTR amplifier at 3 uM, AUC of equivalent chloride current, primary lung epithelial cells homozygous for ΔF508; for Activity 3 μM: compound at 3 μM; for Activity 10 μM: compound at 10 μM
# Description: ii. hBE Equivalent Current (Ieq) Assay
# Primary lung epithelial cells homozygous for the Cystic Fibrosis-causing ΔF508 mutation were differentiated for a minimum of 4 weeks in an air-liquid interface on Costar 24 well HTS filter plates prior to the equivalent current (Ieq) measurements. Cells were apically mucus-washed for 30 minutes 24 h prior to treatment with compounds. The basolateral media was removed and replaced with media containing the compound of interest diluted to its final concentration from DMSO stocks. Treated cells were incubated at 37° C. and 5% CO2 for 24 hours. At the end of the treatment period, the media was changed to the Ieq experimental solution for 2 hours before the experiment and plates are maintained in a CO2-free incubator during this period. The plates containing the cells were then placed in pre-warmed heating blocks at 36° C.±0.5 for 15 minutes before measurements are taken. The transepithelial voltage (VT) and conductance (GT) were measured using a custom 24 channel current clamp (TECC-24) with 24 well electrode manifold. The Ieq assay measurements were made following additions with standardized time periods:
# 1. The baseline VT and GT values were measured for approximately 20 minutes.
# 2. Benzamil was added to block ENaC for 15 minutes.
# 3. Forskolin plus VX-770 were added to maximally activate ΔF508-CFTR for 27 minutes.
# 4. Bumetanide was added to inhibit the NaK2Cl cotransporter and shut-off secretion of chloride.
# The activity data captured was the area under the curve (AUC) for the traces of the equivalent chloride current. The AUC was collected from the time of the forskolin/VX-770 addition until the inhibition by bumetanide addition. Correction in response to compound treatment was scored as the increase in the AUC for compound-treated samples over that of vehicle-treated samples.
# The results are shown below in Table 1. + indicates activity <150% of a CFTR amplifier with compound at concentration shown and amplifier at 3 uM; ++ indicates activity >150% of a CFTR amplifier with compound at concentration shown and amplifier at 3 uM.
SMILES,Activity 3 μM,Activity 10 μM
"COc1cccc(-c2ccc(=O)n(C(C)C(=O)Nc3ccc4cc[nH]c4c3)n2)c1 (stereo not shown) [Compound 2, N-(1H-Indol-6-yl)-2-[3-(3-methoxyphenyl)-6-oxo-1,6-dihydropyridazin-1-yl]propanamide]",+ (activity <150% of a CFTR amplifier with compound at concentration shown and amplifier at 3 uM),+ (activity <150% of a CFTR amplifier with compound at concentration shown and amplifier at 3 uM)
"COc1cccc(-c2ccc(=O)n(C(C)C(=O)Nc3ccc4[nH]ccc4c3)n2)c1 (stereo not shown) [Compound 3, N-(1H-Indol-5-yl)-2-(3-(3-methoxyphenyl)-6-oxopyridazin-1(6H)-yl)propanamide]",+ (activity <150% of a CFTR amplifier with compound at concentration shown and amplifier at 3 uM),+ (activity <150% of a CFTR amplifier with compound at concentration shown and amplifier at 3 uM)
"COc1cccc(-c2ccc(=O)n(C(C)C(=O)NC3CCCCC3)n2)c1 (stereo not shown) [Compound 4, N-Cyclohexyl-2-(3-(3-methoxyphenyl)-6-oxopyridazin-1(6H)-yl)propanamide]",+ (activity <150% of a CFTR amplifier with compound at concentration shown and amplifier at 3 uM),+ (activity <150% of a CFTR amplifier with compound at concentration shown and amplifier at 3 uM)
"COc1cccc(-c2ccc(=O)n(C(C)C(=O)Nc3ccccn3)n2)c1 (stereo not shown) [Compound 5, 2-(3-(3-Methoxyphenyl)-6-oxopyridazin-1(6H)-yl)-N-(pyridin-2-yl)propanamide]",+ (activity <150% of a CFTR amplifier with compound at concentration shown and amplifier at 3 uM),+ (activity <150% of a CFTR amplifier with compound at concentration shown and amplifier at 3 uM)
"COc1cccc(-c2ccc(=O)n(C(C)C(=O)Nc3cccnc3)n2)c1 (stereo not shown) [Compound 6, 2-(3-(3-Methoxyphenyl)-6-oxopyridazin-1(6H)-yl)-N-(pyridin-3-yl)propanamide]",+ (activity <150% of a CFTR amplifier with compound at concentration shown and amplifier at 3 uM),+ (activity <150% of a CFTR amplifier with compound at concentration shown and amplifier at 3 uM)
"CC(C(=O)Nc1cc(F)cc(F)c1)n1nc(-c2ccc3cc[nH]c3c2)ccc1=O (stereo not shown) [Compound 7, 2-(3-(1H-Indol-6-yl)-6-oxopyridazin-1(6H)-yl)-N-(3,5-difluorophenyl)propanamide]",+ (activity <150% of a CFTR amplifier with compound at concentration shown and amplifier at 3 uM),+ (activity <150% of a CFTR amplifier with compound at concentration shown and amplifier at 3 uM)
"COc1cccc(-c2ccc(=O)n(C(C)C(=O)Nc3ccc(C(F)(F)F)cn3)n2)c1 (stereo not shown) [Compound 8, 2-[3-(3-Methoxyphenyl)-6-oxo-1,6-dihydropyridazin-1-yl]-N-[5-(trifluoromethyl)pyridin-2-yl]propanamide]",++ (activity >150% of a CFTR amplifier with compound at concentration shown and amplifier at 3 uM),++ (activity >150% of a CFTR amplifier with compound at concentration shown and amplifier at 3 uM)
"COc1cccc(-c2ccc(=O)n(C(C)C(=O)Nc3ccc(C(F)(F)F)nc3)n2)c1 (stereo not shown) [Compound 9, 2-(3-(3-Methoxyphenyl)-6-oxopyridazin-1(6H)-yl)-N-(6-(trifluoromethyl)pyridin-3-yl)propanamide]",++ (activity >150% of a CFTR amplifier with compound at concentration shown and amplifier at 3 uM),+ (activity <150% of a CFTR amplifier with compound at concentration shown and amplifier at 3 uM)
"COc1cccc(-c2ccc(=O)n(C(C)C(=O)Nc3cccc(C(F)(F)F)n3)n2)c1 (stereo not shown) [Compound 10, 2-(3-(3-Methoxyphenyl)-6-oxopyridazin-1(6H)-yl)-N-(6-(trifluoromethyl)pyridin-2-yl)propanamide]",++ (activity >150% of a CFTR amplifier with compound at concentration shown and amplifier at 3 uM),++ (activity >150% of a CFTR amplifier with compound at concentration shown and amplifier at 3 uM)
"COc1cccc(-c2ccc(=O)n(C(C)C(=O)Nc3cc(C(F)(F)F)ccn3)n2)c1 (stereo not shown) [Compound 11, 2-(3-(3-Methoxyphenyl)-6-oxopyridazin-1(6H)-yl)-N-(4-(trifluoromethyl)pyridin-2-yl)propanamide]",++ (activity >150% of a CFTR amplifier with compound at concentration shown and amplifier at 3 uM),++ (activity >150% of a CFTR amplifier with compound at concentration shown and amplifier at 3 uM)
"COc1cccc(-c2ccc(=O)n(C(C)C(=O)Nc3cncc(C(F)(F)F)c3)n2)c1 (stereo not shown) [Compound 12, 2-(3-(3-Methoxyphenyl)-6-oxopyridazin-1(6H)-yl)-N-(5-(trifluoromethyl)pyridin-3-yl)propanamide]",+ (activity <150% of a CFTR amplifier with compound at concentration shown and amplifier at 3 uM),+ (activity <150% of a CFTR amplifier with compound at concentration shown and amplifier at 3 uM)
"CC(C(=O)Nc1ccc(C(F)(F)F)cc1)n1nc(-c2cccs2)ccc1=O (stereo not shown) [Compound 13, 2-[6-oxo-3-(thiophen-2-yl)-1,6-dihydropyridazin-1-yl]-N-[4-(trifluoromethyl)phenyl]propanamide]",++ (activity >150% of a CFTR amplifier with compound at concentration shown and amplifier at 3 uM),+ (activity <150% of a CFTR amplifier with compound at concentration shown and amplifier at 3 uM)
"CC(C(=O)Nc1ccc(C(F)(F)F)cc1)n1nc(-c2ccc(Cl)s2)ccc1=O (stereo not shown) [Compound 14, 2-(3-(5-Chlorothiophen-2-yl)-6-oxopyridazin-1(6H)-yl)-N-(4-(trifluoromethyl)phenyl)propanamide]",++ (activity >150% of a CFTR amplifier with compound at concentration shown and amplifier at 3 uM),++ (activity >150% of a CFTR amplifier with compound at concentration shown and amplifier at 3 uM)
"CC(C(=O)Nc1ccc(C(F)(F)F)cc1)n1nc(-c2ccsc2)ccc1=O (stereo not shown) [Compound 15, 2-(6-Oxo-3-(thiophen-3-yl)pyridazin-1(6H)-yl)-N-(4-(trifluoromethyl)phenyl)propanamide]",++ (activity >150% of a CFTR amplifier with compound at concentration shown and amplifier at 3 uM),+ (activity <150% of a CFTR amplifier with compound at concentration shown and amplifier at 3 uM)
"CC(C(=O)Nc1ccc(C(F)(F)F)cc1)n1nc(-c2csc(Cl)c2)ccc1=O (stereo not shown) [Compound 16, 2-[3-(5-Chlorothiophen-3-yl)-6-oxo-1,6-dihydropyridazin-1-yl]-N-[4-(trifluoromethyl)phenyl]propanamide]",++ (activity >150% of a CFTR amplifier with compound at concentration shown and amplifier at 3 uM),++ (activity >150% of a CFTR amplifier with compound at concentration shown and amplifier at 3 uM)
"CC(C(=O)Nc1ccc(C(F)(F)F)cn1)n1nc(-c2cccc(Cl)c2)ccc1=O (stereo not shown) [Compound 17, 2-(3-(3-Chlorophenyl)-6-oxopyridazin-1(6H)-yl)-N-(5-(trifluoromethyl)pyridin-2-yl)propanamide]",++ (activity >150% of a CFTR amplifier with compound at concentration shown and amplifier at 3 uM),++ (activity >150% of a CFTR amplifier with compound at concentration shown and amplifier at 3 uM)
"COc1csc(-c2ccc(=O)n(C(C)C(=O)Nc3ccc(C(F)(F)F)cc3)n2)c1 (stereo not shown) [Compound 18, 2-(3-(4-Methoxythiophen-2-yl)-6-oxopyridazin-1(6H)-yl)-N-(4-(trifluoromethyl)phenyl)propanamide]",–,+ (activity <150% of a CFTR amplifier with compound at concentration shown and amplifier at 3 uM)
"COc1cc(-c2ccc(=O)n(C(C)C(=O)Nc3ccc(C(F)(F)F)cc3)n2)ccn1 (stereo not shown) [Compound 19, 2-(3-(2-Methoxypyridin-4-yl)-6-oxopyridazin-1(6H)-yl)-N-(4-(trifluoromethyl)phenyl)propanamide]",+ (activity <150% of a CFTR amplifier with compound at concentration shown and amplifier at 3 uM),+ (activity <150% of a CFTR amplifier with compound at concentration shown and amplifier at 3 uM)
"COc1cncc(-c2ccc(=O)n(C(C)C(=O)Nc3ccc(C(F)(F)F)cc3)n2)c1 (stereo not shown) [Compound 20, 2-(3-(5-Methoxypyridin-3-yl)-6-oxopyridazin-1(6H)-yl)-N-(4-(trifluoromethyl)phenyl)propanamide]",++ (activity >150% of a CFTR amplifier with compound at concentration shown and amplifier at 3 uM),++ (activity >150% of a CFTR amplifier with compound at concentration shown and amplifier at 3 uM)
